# Assay results published in the CheMixHub ionic liquid set.
# ± gives the uncertainty stated by the source.
# Assay: xn = mol fraction of the nth substance listed
# Conditions: 101 kPa, frequency 2 MHz
smiles,measurement,setting,value
O=S(=O)([O-])C(F)(F)F.[Li+] + O=S(=O)([N-]S(=O)(=O)C(F)(F)F)C(F)(F)F.[Li+] + O,electrical conductivity,"333 K, x2 = 0.2551, x1 = 0.1024",1.539 ± 0.015 S/m
same,electrical conductivity,"333 K, x2 = 0.2745, x1 = 0.112",1.16 ± 0.012 S/m
same,electrical conductivity,"338.1 K, x2 = 0.001799, x1 = 0.0005943",1.57 ± 0.016 S/m
same,electrical conductivity,"338.1 K, x2 = 0.005377, x1 = 0.001799",3.913 ± 0.039 S/m
same,electrical conductivity,"338.1 K, x2 = 0.00893, x1 = 0.003054",5.77 ± 0.058 S/m
same,electrical conductivity,"338.1 K, x2 = 0.01246, x1 = 0.004127",7.28 ± 0.073 S/m
same,electrical conductivity,"338.1 K, x2 = 0.01596, x1 = 0.005377",8.517 ± 0.085 S/m
same,electrical conductivity,"338.1 K, x2 = 0.01944, x1 = 0.006623",9.534 ± 0.095 S/m
same,electrical conductivity,"338.1 K, x2 = 0.05129, x1 = 0.0177",12.8 ± 0.13 S/m
same,electrical conductivity,"338.1 K, x2 = 0.08265, x1 = 0.02921",11.3 ± 0.11 S/m
same,electrical conductivity,"338.1 K, x2 = 0.112, x1 = 0.04029",8.943 ± 0.089 S/m
same,electrical conductivity,"338.1 K, x2 = 0.1395, x1 = 0.05129",6.839 ± 0.068 S/m
same,electrical conductivity,"338.1 K, x2 = 0.1654, x1 = 0.06203",5.18 ± 0.052 S/m
same,electrical conductivity,"338.1 K, x2 = 0.1898, x1 = 0.07238",3.921 ± 0.039 S/m
same,electrical conductivity,"338.1 K, x2 = 0.2128, x1 = 0.08265",2.98 ± 0.03 S/m
same,electrical conductivity,"338.1 K, x2 = 0.2345, x1 = 0.0927",2.26 ± 0.023 S/m
same,electrical conductivity,"338.1 K, x2 = 0.2551, x1 = 0.1024",1.72 ± 0.017 S/m
same,electrical conductivity,"338.1 K, x2 = 0.2745, x1 = 0.112",1.303 ± 0.013 S/m
same,electrical conductivity,"343 K, x2 = 0.001799, x1 = 0.0005943",1.67 ± 0.017 S/m
same,electrical conductivity,"343 K, x2 = 0.005377, x1 = 0.001799",4.16 ± 0.042 S/m
same,electrical conductivity,"343 K, x2 = 0.00893, x1 = 0.003054",6.124 ± 0.061 S/m
same,electrical conductivity,"343 K, x2 = 0.01246, x1 = 0.004127",7.725 ± 0.077 S/m
same,electrical conductivity,"343 K, x2 = 0.01596, x1 = 0.005377",9.039 ± 0.09 S/m
same,electrical conductivity,"343 K, x2 = 0.01944, x1 = 0.006623",10.12 ± 0.1 S/m
same,electrical conductivity,"343 K, x2 = 0.05129, x1 = 0.0177",13.6 ± 0.14 S/m
same,electrical conductivity,"343 K, x2 = 0.08265, x1 = 0.02921",12 ± 0.12 S/m
same,electrical conductivity,"343 K, x2 = 0.112, x1 = 0.04029",9.518 ± 0.095 S/m
same,electrical conductivity,"343 K, x2 = 0.1395, x1 = 0.05129",7.313 ± 0.073 S/m
same,electrical conductivity,"343 K, x2 = 0.1654, x1 = 0.06203",5.57 ± 0.056 S/m
same,electrical conductivity,"343 K, x2 = 0.1898, x1 = 0.07238",4.245 ± 0.042 S/m
same,electrical conductivity,"343 K, x2 = 0.2128, x1 = 0.08265",3.244 ± 0.032 S/m
same,electrical conductivity,"343 K, x2 = 0.2345, x1 = 0.0927",2.48 ± 0.025 S/m
same,electrical conductivity,"343 K, x2 = 0.2551, x1 = 0.1024",1.903 ± 0.019 S/m
same,electrical conductivity,"343 K, x2 = 0.2745, x1 = 0.112",1.45 ± 0.015 S/m
same,electrical conductivity,"348.1 K, x2 = 0.001799, x1 = 0.0005943",1.77 ± 0.018 S/m
same,electrical conductivity,"348.1 K, x2 = 0.005377, x1 = 0.001799",4.39 ± 0.044 S/m
same,electrical conductivity,"348.1 K, x2 = 0.00893, x1 = 0.003054",6.46 ± 0.065 S/m
same,electrical conductivity,"348.1 K, x2 = 0.01246, x1 = 0.004127",8.142 ± 0.081 S/m
same,electrical conductivity,"348.1 K, x2 = 0.01596, x1 = 0.005377",9.522 ± 0.095 S/m
same,electrical conductivity,"348.1 K, x2 = 0.01944, x1 = 0.006623",10.7 ± 0.11 S/m
same,electrical conductivity,"348.1 K, x2 = 0.05129, x1 = 0.0177",14.26 ± 0.14 S/m
same,electrical conductivity,"348.1 K, x2 = 0.08265, x1 = 0.02921",12.6 ± 0.13 S/m
same,electrical conductivity,"348.1 K, x2 = 0.112, x1 = 0.04029",10.05 ± 0.1 S/m
same,electrical conductivity,"348.1 K, x2 = 0.1395, x1 = 0.05129",7.76 ± 0.078 S/m
same,electrical conductivity,"348.1 K, x2 = 0.1654, x1 = 0.06203",5.943 ± 0.059 S/m
same,electrical conductivity,"348.1 K, x2 = 0.1898, x1 = 0.07238",4.56 ± 0.046 S/m
same,electrical conductivity,"348.1 K, x2 = 0.2128, x1 = 0.08265",3.507 ± 0.035 S/m
same,electrical conductivity,"348.1 K, x2 = 0.2345, x1 = 0.0927",2.705 ± 0.027 S/m
same,electrical conductivity,"348.1 K, x2 = 0.2551, x1 = 0.1024",2.08 ± 0.021 S/m
same,electrical conductivity,"348.1 K, x2 = 0.2745, x1 = 0.112",1.6 ± 0.016 S/m
same,electrical conductivity,"353 K, x2 = 0.001799, x1 = 0.0005943",1.86 ± 0.019 S/m
same,electrical conductivity,"353 K, x2 = 0.005377, x1 = 0.001799",4.601 ± 0.046 S/m
same,electrical conductivity,"353 K, x2 = 0.00893, x1 = 0.003054",6.76 ± 0.068 S/m
same,electrical conductivity,"353 K, x2 = 0.01246, x1 = 0.004127",8.518 ± 0.085 S/m
same,electrical conductivity,"353 K, x2 = 0.01596, x1 = 0.005377",9.96 ± 0.1 S/m
same,electrical conductivity,"353 K, x2 = 0.01944, x1 = 0.006623",11.13 ± 0.11 S/m
same,electrical conductivity,"353 K, x2 = 0.05129, x1 = 0.0177",14.9 ± 0.15 S/m
same,electrical conductivity,"353 K, x2 = 0.08265, x1 = 0.02921",13.18 ± 0.13 S/m
same,electrical conductivity,"353 K, x2 = 0.112, x1 = 0.04029",10.5 ± 0.11 S/m
same,electrical conductivity,"353 K, x2 = 0.1395, x1 = 0.05129",8.17 ± 0.082 S/m
same,electrical conductivity,"353 K, x2 = 0.1654, x1 = 0.06203",6.29 ± 0.063 S/m
same,electrical conductivity,"353 K, x2 = 0.1898, x1 = 0.07238",4.86 ± 0.049 S/m
same,electrical conductivity,"353 K, x2 = 0.2128, x1 = 0.08265",3.76 ± 0.038 S/m
same,electrical conductivity,"353 K, x2 = 0.2345, x1 = 0.0927",2.917 ± 0.029 S/m
same,electrical conductivity,"353 K, x2 = 0.2551, x1 = 0.1024",2.26 ± 0.023 S/m
same,electrical conductivity,"353 K, x2 = 0.2745, x1 = 0.112",1.744 ± 0.017 S/m
same,electrical conductivity,"358.1 K, x2 = 0.001799, x1 = 0.0005943",1.942 ± 0.019 S/m
same,electrical conductivity,"358.1 K, x2 = 0.005377, x1 = 0.001799",4.79 ± 0.048 S/m
same,electrical conductivity,"358.1 K, x2 = 0.00893, x1 = 0.003054",7.029 ± 0.07 S/m
same,electrical conductivity,"358.1 K, x2 = 0.01246, x1 = 0.004127",8.846 ± 0.088 S/m
same,electrical conductivity,"358.1 K, x2 = 0.01596, x1 = 0.005377",10.33 ± 0.1 S/m
same,electrical conductivity,"358.1 K, x2 = 0.01944, x1 = 0.006623",11.5 ± 0.12 S/m
same,electrical conductivity,"358.1 K, x2 = 0.05129, x1 = 0.0177",15.41 ± 0.15 S/m
same,electrical conductivity,"358.1 K, x2 = 0.08265, x1 = 0.02921",13.7 ± 0.14 S/m
same,electrical conductivity,"358.1 K, x2 = 0.112, x1 = 0.04029",11 ± 0.11 S/m
same,electrical conductivity,"358.1 K, x2 = 0.1395, x1 = 0.05129",8.535 ± 0.085 S/m
same,electrical conductivity,"358.1 K, x2 = 0.1654, x1 = 0.06203",6.609 ± 0.066 S/m
same,electrical conductivity,"358.1 K, x2 = 0.1898, x1 = 0.07238",5.128 ± 0.051 S/m
same,electrical conductivity,"358.1 K, x2 = 0.2128, x1 = 0.08265",4 ± 0.04 S/m
same,electrical conductivity,"358.1 K, x2 = 0.2345, x1 = 0.0927",3.118 ± 0.031 S/m
same,electrical conductivity,"358.1 K, x2 = 0.2551, x1 = 0.1024",2.429 ± 0.024 S/m
same,electrical conductivity,"358.1 K, x2 = 0.2745, x1 = 0.112",1.88 ± 0.019 S/m
